Experimental data reported in US6465501B2, “Azolidines as β3 adrenergic receptor agonists” (Wyeth, priority 2000, dated 2002).
pEC50: −log10 of the molar value. Where two headings read alike, the source gives them in different places.

Legend:
[1] = target: T1, human β3-AR (Homo sapiens, UniProt P13945); assay: cAMP accumulation (SPA) in CHO cells transfected with human β3 adrenergic receptor; type: cell-based; conditions: for Emax: read-out: IA(β3)
T1 construct: Full length β3 AR clones (402 amino acids) containing the last 6 amino acids of hβ3; expressed in transfected cells; host or cells: CHO (Chinese hamster ovary) cells
T1 sequence (P13945 whole entry): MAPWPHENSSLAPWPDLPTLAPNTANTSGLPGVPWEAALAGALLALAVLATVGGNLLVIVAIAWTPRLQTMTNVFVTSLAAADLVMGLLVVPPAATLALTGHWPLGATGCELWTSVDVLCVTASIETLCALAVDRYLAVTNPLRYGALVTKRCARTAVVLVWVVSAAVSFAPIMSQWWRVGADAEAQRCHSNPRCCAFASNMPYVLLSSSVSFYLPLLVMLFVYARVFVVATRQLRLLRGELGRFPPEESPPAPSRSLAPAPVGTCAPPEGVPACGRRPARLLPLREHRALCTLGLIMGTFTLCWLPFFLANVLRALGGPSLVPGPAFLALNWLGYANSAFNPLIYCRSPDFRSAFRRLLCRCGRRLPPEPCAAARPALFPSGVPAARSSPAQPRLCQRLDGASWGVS
Procedure: The ability of compounds of this invention to treat or inhibit disorders related to insulin resistance or hyperglycemia was established with representative compounds of this invention in the following standard pharmacological test procedures, which measured the binding selectivity to the β1, β2, and β3 adrenergic receptors. Binding to the receptors was measured in Chinese Hamster ovary (CHO) cells that were transfected with adrenergic receptors. The following briefly summarizes the procedures used and results obtained.
Cloning of Human β3-AR Genomic DNA: cDNA was constructed by ligating four polymerase chain reaction (PCR) products using the following primers: an ATG-Narl fragment, sense primer 5′-[…]3′ and anti-sense primer 5′[…]3′; a Narl-Accl fragment, 5′[…]3′ as sense and 5′[…]3′ as anti-sense primer; an Accli-Styl fragment, sense primer 5′[…]3′ and anti-sense primer 5′[…]3′ and a Styl-TAG fragment, with sense primer 5′[…]3′ and anti-sense primer 5′[…]3′. The corresponding primer sequences are described in Mantzoros, C. S., etal, Diabetes 45: 909-914 (1996). The four fragments are ligated into a pUC 18 plasmid (Gibco-BRL) and sequenced. Full length β3 AR clones (402 amino acids) containing the last 6 amino acids of hβ3 . . . AR are prepared with the β3-βARpcDNA3 from ATTC.
Binding Procedure: Clones expressing receptor levels of 70 to 110 fmoles/mg protein were used in the test procedures. CHO cells were grown in 24-well tissue culture plates in Dulbecco's Modified Eagle Media with 10% fetal bovine serum, MEM non-essential amino acids, Penicillin-Streptompycin and Geneticin. On the day of test procedure, growth medium was replaced with preincubation media (Dulbecco's Modified Eagle Media and incubated for 30 minutes at 37° C. Preincubation medium was replaced with 0.2 ml treatment medium containing DMEM media containing 250 μM IBMX (isobutyl-1-methylxantine) plus 1 mM ascorbic acid with test compound dissolved in DMSO. Test compounds were tested over a concentration range of 10^−9 M to 10^−5 M for β3 cells and 10^″8 to 10^″4 M for β1 and β2 transfected cells. Isoproterenol (10^−5 M) was used as an internal standard for comparison of activity. Cells were incubated at 37° C. on a rocker for 30 min with the β3 cells and 15 min for β1 and β2 cells. Incubation was stopped with the addition of 0.2 N HCI and neutralized with 2.5 N NaOH. The plates, containing the cells and neutralized media, were stored at −20 degrees celsius until ready to test for cAMP using the SPA test kit (Amersham).
Data Analysis and Results: Data collected from the SPA test procedure were analyzed as percent of the maximal isoproterenol response at 10^−5 M. Activity curves were plotted using the SAS statistical and graphics software. EC50 values were generated for each compound and the maximal response (IA) developed for each compound is compared to the maximal response of isoproternol at 10^−5 M from the following formula: [formula]

[2] = CHO cells expressing human β3-AR, cAMP, 30 min at 37° C., 10^-9 M to 10^-5 M, read-out: EC50(β3)
[3] = maximal response compared to the maximal response of isoproterenol at 10^-5 M, CHO cells expressing human β3-AR

Row | pEC50 [1, 2] | Emax [1, 3] [%] | melting point [°C] | Compound | pEC50 [1] | Emax ([1]; CHO) [%]
1 | 8.52 | 117 | – | O=C1NC(=O)C(Nc2ccc(CCNC[C@H](O)COc3cccc(O)c3)cc2)S1 (stereo partly shown) [Example 12, 5-[4-(2-{[(2 S)-2-Hydroxy-3-(3-hydroxyphenoxy)propyl]amino}ethyl)anilino]-1,3-thiazolidine-2,4-dione] | – | –
2 | – | – | – | CC(Cc1ccc(NC2SC(=O)NC2=O)cc1)NC[C@H](O)c1cccc(Cl)c1 (stereo partly shown) [Example 18, 5-[4-(2-{[(2 R)-2-(3-Chlorophenyl)-2-hydroxyethyl]amino}propyl)anilino]-1,3-thiazolidine-2,4-dione] | 8.05 | 89
3 | 7.70 | 99 | 165 | O=C1NC(=O)C(Nc2ccc(CCNC[C@H](O)COc3ccc(O)cc3)cc2)S1 (stereo partly shown) [Example 5, 5-[4-(2-{[(2 S)-2-Hydroxy-3-(4-hydroxyphenoxy)propyl]amino}ethyl)anilino]-1,3-thiazolidine-2,4-dione] | – | –
4 | 7.92 | 104 | – | O=C1NC(=O)C(Nc2ccc(CCNC[C@H](O)COc3cccc4[nH]c5ccccc5c34)cc2)S1 (stereo partly shown) [Example 13, 5-[4-(2-{[(2 S)-3-(9 H-Carbazol-4-yloxy)-2-hydroxypropyl]amino}ethyl)anilino]-1 ,3-thiazolidine-2,4-dione] | – | –
5 | 7.02 | 88 | – | O=C1NC(=O)C(Nc2ccc(CCNC[C@H](O)c3cccnc3)cc2)S1 (stereo partly shown) [Example 31, 5-{4-[2-((2 R)-2-Hydroxy-2-pyridin-3-yl-ethylamino)-ethyl]-phenylamino}-thiazolidine-2,4-dione] | – | –
6 | 8.52 | 109 | – | O=C1NC(=O)C(N(Cc2ccc(Br)cc2)c2ccc(CCNC[C@H](O)COc3ccccc3)cc2)S1 (stereo partly shown) [Example 29, 5-((4-Bromo-benzyl)-{4-[2-((2 S)-2-hydroxy-3-phenoxy-propylamino)-ethyl]-phenyl}-amino)-thiazolidine-2,4-dione] | – | –
7 | 8.15 | 83 | 162 | O=C1NC(=O)C(Nc2ccc(CCNC[C@H](O)c3cccc(Cl)c3)cc2)S1 (stereo partly shown) [Example 6, 5-[4-(2-{[(2 R)-2-(3-Chlorophenyl)-2-hydroxy-ethyl]amino}ethyl)anilino]-1,3-thiazolidine-2,4-dione] | – | –
8 | 7.08 | 94 | – | O=C1NC(=O)C(Nc2ccc(CCNC[C@H](O)c3ccccc3)cc2)S1 (stereo partly shown) [Example 7, 5-[4-(2-{[(2 R)-2-Hydroxy-2-phenylethyl]amino}ethyl)anilino]-1,3-thiazolidine-2,4-dione] | – | –
9 | 7.77 | 68 | – | CN(c1ccc(CCNC[C@H](O)COc2ccccc2)cc1)C1SC(=O)NC1=O (stereo partly shown) [Example 17, 5-[4-(2-{[(2 S)-2-Hydroxy-3-phenoxypropyl]amino}ethyl)(methyl)anilino]-1,3-thiazolidine-2,4-dione.] | – | –
10 | 7.70 | 71 | – | O=C1NC(=O)C(Nc2ccc(CCNC[C@@H](O)COc3cccc4[nH]c(=O)[nH]c34)cc2)S1 (stereo partly shown) [Example 19, 5-{4-[2-({(2 R)-2-Hydroxy-3-[(2-oxo-2,3-di hydro-1 H-benzimidazol-4-yl)oxy]propyl}amino)ethyl]anilino}-1,3-thiazolidine-2,4-dione] | – | –
11 | 8.05 | 111 | – | CS(=O)(=O)Nc1cc([C@H](O)CNCCc2ccc(NC3SC(=O)NC3=O)cc2)ccc1O (stereo partly shown) [Example 14, N{5-[(1 S)-2-({4-[(2,4-Dioxo-1,3-thiazolidin-5-yl)amino]phenethyl}amino)-1-hydroxyethyl]-2-hydroxyphenyl}methanesulfonamide] | – | –
12 | 9.05 | 98 | – | O=C1NC(=O)C(Nc2ccc(CCNC[C@H](O)COc3ccccc3)cc2)S1 (stereo partly shown) [Example 9, 5-[4-(2-{[(2 S)-2-Hydroxy-3-phenoxypropyl]amino}ethyl)anilino]-1,3-thiazolidine-2,4-dione] | – | –
13 | 7.85 | 66 | – | O=C1NC(=O)C(Nc2ccc(CCNC[C@H](O)COc3ccc(F)cc3)cc2)S1 (stereo partly shown) [Example 8, 5-[4-(2-{[(2 S)-3-(4-Fluorophenoxy)-2-hydroxypropyl]amino}ethyl)anilino]-1,3-thiazolidine-2,4-dione] | – | –
14 | 9.00 | 85 | 152 | O=C1NC(=O)C(Nc2ccc(CCNC[C@H](O)COc3ccc(OCc4ccccc4)cc3)cc2)S1 (stereo partly shown) [Example 4, 5-{4-[2-({(2 S)-3-[4-(Benzyloxy)phenoxy]-2-hydroxypropyl}amino)ethyl]anilino}-1,3-thiazolidine-2,4-dione] | – | –
